A short description of series [1]: Plasma half-life of compound B in guinea pig. The class given is in vivo. On the procedure:
Therefore, follow-up studies were conducted in dogs because the half-life of compounds B in this species is more similar to the human half-life than is the half-life in the guinea pig.
The half life of compound B was determined by fitting the plasma concentrations and determining the elimination rate constant ke. The half-life is calculated as t½=0.693/ke.

Series [2] is described as follows: Total and free plasma levels of compound B in dog (HPLC). It is filed as in vivo. As to conditions: throughout the three bolus infusions of Mab 9F7, FIG. 11. On the procedure:
In a second study, a dog was treated with a capsule of 10 mg of compound A, BID for 4 days (15 mg on day 3) prior to antibody testing. […] Four hours after the last oral dose of compound A, a dose of pentobarbitol and the monoclonal […] antibody (P187-9F7) was infused by a i.v. bolus injection. Each bolus contained a 5-fold molar excess over drug plasma levels (about 50 mg of Mab 9F7). A control dog was given identical amounts of antibody without compound A oral dosing. Blood samples were collected for aggregation assays at 5, 15, 30 and 60 minutes after each bolus administration of antibody, plasma levels of Mab 9F7, and total and free plasma levels of compound B.
This method involves the extraction of compound B and an internal standard (compound F, shown hereinafter) from acidified dog plasma with a C18 solid phase extraction column. Analysis is by reverse phase high performance liquid chromatography with fluorescence detection. […] Quality control pools were prepared in dog plasma and quantified using the human calibration curve. A linear weighted (1/concentration squared) least squares regression analysis was used to quantify samples. This method was validated with a minimum quantifiable level of 1.00 ng/mL. […]
Removed the samples to be analyzed from the freezer and thawed. […] The filtrate was then analyzed by the method given below. […]

Series [3] can be described thus: Elimination of compounds B and D from the circulation. The class given is in vivo. The note with it: for Route of removal from the circulation: in vivo; for Change in elimination half-life with decreased creatinine clearance: renal impairment. The source says: In renally impaired patients, reversal of the functionality of these compounds would be especially useful in an emergency situation where rapid removal of active compound is desired.

Series [4] deals with heparinized human whole blood. Briefly: Activated clotting time (ACT) in heparinized human whole blood. As to conditions: 1.4 Units/mL heparin; varying concentrations; FIG. 1. It is filed as cell-based. An excerpt:
This process can be used to calculate a standardized concentration curve for various known concentrations of anti-platelet compounds. The process can also be used to measure activated clotting times for use in calculating the ACT number for the processes of the invention.
A. Blood was drawn from a human volunteer into a syringe containing heparin. The heparin to whole blood ratio was 1:10 such that the final concentration of heparin in the syringe was 1.4 Units/mL.
B. The Hemochron™-8000 was set up to run ACT using the P-215 tubes from the same manufacturer (International Technidyne).
A. A 1 mL sample of the above heparinized blood was admixed and maintained (incubated) with 2.5-10 μl of antagonist compound or saline for 5 minutes at room temperature.
B. The Hemochron™ was started as 400 μl of the test sample was pipetted into the P-215 tube. The tube contents were gently mixed, placed into the Hemochron™ and turned one revolution until the light on the instrument came on.
C. Step B was repeated for the second channel of the instrument within 30 seconds to give an average activated clotting time. […]
The activated clotting time was first measured (in seconds) for control whole blood from each donor containing only 1.4 Units/mL of heparin. The clotting times were then measured as in Example 1 by varying concentrations of antiplatelet compounds B and D in addition to heparin for each donor. […]

Another series deals with platelet aggregation. Also noted: dose or concentration left out as unconfirmed. As to conditions: anesthetized dogs; for up to 210 minutes; cited from earlier work.
A further series concerns the target GPIIb/IIIa (Homo sapiens, UniProt P05106+P08514). The note with it: when administered; cited from earlier work.

This is an account of results in patent US20030118584A1, “Restoration of platelet aggregation by antibody administration after GPIIB/IIIa antagonist treatment” (G.D. Searle & Co., priority 1998, published 2003).

For `C#C[C@H](CC(=O)O)NC(=O)CCC(=O)Nc1ccc(C(=N)N)cc1` [compound B, 3S-[[4-[[4-(aminoiminomethyl)phenyl]amino]-1,4-dioxobutyl]amino]-4-pentynoic acid], in series [1], the Half-life result is “short half-life”. Also, the “Levels of total compound B (free plus antibody bound)” value in series [2] was “increased throughout the three infusions”. Besides, in series [3], the “Route of removal from the circulation” value is reported as “almost exclusively by the kidney” and the “Change in elimination half-life with decreased creatinine clearance” value is reported as “appreciable increases”. Further, in series [4], the “Effect of antiplatelet compound concentration on activated clotting time” value is “directly affect the activated clotting time”.

For “cyclic [D-2-aminobutyryl-N2-methyl-L-arginyl-glycyl-L-aspartyl-3-aminomethyl-benzoic acid] methanesulfonic acid salt [DMP728]”, in the series on platelet aggregation, the “Inhibition of platelet aggregation, measured ex vivo” value is “nearly complete inhibition”.

With “C7E3: anti-GPIIb/IIIa antibody (Centocor)”, the “Effect on activated clotting times” value with GPIIb/IIIa is given as “increase of activated clotting times”.

In the case of `N=C(N)c1ccc(N2CC[C@H](NC(=O)NCCC(=O)O)C2=O)cc1` [compound D, 3-[[[[1-[4-(aminoiminomethyl)phenyl]-2-oxo-pyrrolidin-3S-yl]amino]carbonyl]amino]propanoic acid], in series [3], the “Route of removal from the circulation” value was “almost exclusively by the kidney” and the “Change in elimination half-life with decreased creatinine clearance” value was “appreciable increases”. Further, in series [4], the “Effect of antiplatelet compound concentration on activated clotting time” value was “directly affect the activated clotting time”.
